Legend:
[1] = system: HCC15 cells; assay: MTT assay, viability of HCC15 cells; assay type: cell-based; conditions: Homo sapiens, 72 h, three days, read-out: IC50 against the viability
Experimental: (§1) Cells were seeded into 96-well plates at a density of 1-2 × 10^3 cells/well and incubated for 24 h. Cells were treated with vehicle or various concentrations of test compounds for two (PC9 and PC9/ER cells) or three (other cells) days. Cells were further incubated with MTT solution (final concentration of 500 μg/mL) for 4 h at 37 °C. The formazan products were dissolved in dimethyl sulfoxide (DMSO), and the absorbance was measured at 570 nm. The data are presented as a percentage of the control group.

[2] = MTT assay, viability of Wi38 human lung fibroblasts; assay type: cell-based; conditions: human, Wi38 lung fibroblasts; Wi38, 10 μM; read-out: percentage of cell viability
Experimental: as §1

[3] = system: Wi38 cells; assay: as above; assay type: cell-based; conditions: WI-38, 72 h; Wi38 human lung fibroblasts, MTT assay, three days; read-out: IC50 against the viability
Experimental: as §1

[4] = system: PC9 cells; assay: MTT assay, viability of PC9 cells; assay type: cell-based; conditions: Homo sapiens, PC-9, 48 h, two days, 5% FBS, read-out: IC50 against the viability
Experimental: as §1

[5] = molecular target: T1, ABL1(T315I)-phosphorylated (Homo sapiens, UniProt P00519, T315I); assay: KINOMEscan competition binding assay; conditions: LL6 at 10 μM; read-out: Percent Control
T1 construct: purchased DiscoverX KINOMEscan
Experimental: (§2) To briefly summarize, Kd was measured by a competition binding assay that quantitatively measures the ability of a compound to compete with an immobilized ligand. […] Dose response curves of 11 points are obtained for Kd values, which are measured in duplicate. See more details in the cited references [39]-[42] and see also at www.discoverx.com.

[6] = molecular target: T2, AKT2 (Homo sapiens, UniProt P31751); assay: KINOMEscan competition binding assay; conditions: LL6 at 10 μM; read-out: Percent Control
T2 construct: purchased DiscoverX KINOMEscan
T2 sequence (P31751 whole entry): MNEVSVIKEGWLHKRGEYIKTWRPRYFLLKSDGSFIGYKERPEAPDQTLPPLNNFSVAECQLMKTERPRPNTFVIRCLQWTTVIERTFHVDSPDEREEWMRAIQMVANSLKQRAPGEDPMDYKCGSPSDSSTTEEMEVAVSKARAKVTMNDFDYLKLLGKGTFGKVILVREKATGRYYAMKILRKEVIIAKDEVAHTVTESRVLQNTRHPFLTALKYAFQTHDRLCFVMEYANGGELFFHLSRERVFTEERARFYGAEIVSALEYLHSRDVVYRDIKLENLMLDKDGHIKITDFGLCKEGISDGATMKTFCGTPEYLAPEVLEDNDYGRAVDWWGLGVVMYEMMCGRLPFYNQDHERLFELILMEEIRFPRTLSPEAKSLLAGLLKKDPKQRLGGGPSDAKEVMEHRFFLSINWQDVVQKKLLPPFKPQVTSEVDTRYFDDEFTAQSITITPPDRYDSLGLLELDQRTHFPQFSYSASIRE
Experimental: as §2

[7] = molecular target: T3, AURKB (Homo sapiens, UniProt Q96GD4); assay: KINOMEscan competition binding assay; conditions: LL6 at 10 μM; read-out: Percent Control
T3 construct: purchased DiscoverX KINOMEscan
T3 sequence (Q96GD4 whole entry): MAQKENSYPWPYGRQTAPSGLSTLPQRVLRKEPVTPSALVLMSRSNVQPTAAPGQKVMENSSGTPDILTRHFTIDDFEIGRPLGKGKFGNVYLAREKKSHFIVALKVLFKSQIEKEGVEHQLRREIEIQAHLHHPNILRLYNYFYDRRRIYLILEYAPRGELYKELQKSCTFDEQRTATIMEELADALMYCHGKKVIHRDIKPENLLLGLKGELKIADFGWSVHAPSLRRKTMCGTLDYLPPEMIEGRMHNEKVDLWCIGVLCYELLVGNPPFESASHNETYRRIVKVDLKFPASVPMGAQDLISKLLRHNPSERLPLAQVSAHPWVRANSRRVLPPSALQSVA
Experimental: as §2

[8] = molecular target: T4, ABL1-phosphorylated (Homo sapiens, UniProt P00519); assay: KINOMEscan competition binding assay; conditions: LL6 at 10 μM; read-out: Percent Control
T4 construct: purchased DiscoverX KINOMEscan
Experimental: as §2

[9] = molecular target: T5, ABL1(E255K)-phosphorylated (Homo sapiens, UniProt P00519, E255K); assay: KINOMEscan competition binding assay; conditions: LL6 at 10 μM; read-out: Percent Control
T5 construct: purchased DiscoverX KINOMEscan
Experimental: as §2

[10] = molecular target: T6, ADCK3 (Homo sapiens, UniProt Q8NI60); assay: KINOMEscan competition binding assay; conditions: LL6 at 10 μM; read-out: Percent Control
T6 construct: purchased DiscoverX KINOMEscan
T6 sequence (Q8NI60 163-647): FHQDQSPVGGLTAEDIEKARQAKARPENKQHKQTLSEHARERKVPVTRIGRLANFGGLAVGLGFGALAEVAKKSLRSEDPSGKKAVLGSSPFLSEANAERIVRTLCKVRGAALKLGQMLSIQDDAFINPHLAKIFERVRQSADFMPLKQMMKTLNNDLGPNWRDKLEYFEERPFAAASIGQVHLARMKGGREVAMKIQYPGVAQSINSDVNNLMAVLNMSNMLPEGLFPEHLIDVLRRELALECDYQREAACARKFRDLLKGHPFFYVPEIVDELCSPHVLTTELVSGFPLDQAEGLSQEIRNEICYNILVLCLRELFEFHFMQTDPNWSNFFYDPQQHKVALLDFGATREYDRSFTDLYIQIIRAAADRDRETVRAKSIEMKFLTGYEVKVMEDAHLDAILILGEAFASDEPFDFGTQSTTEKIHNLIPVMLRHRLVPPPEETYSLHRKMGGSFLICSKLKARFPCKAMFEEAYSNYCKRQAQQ
Experimental: as §2

[11] = molecular target: T7, ABL1-nonphosphorylated (Homo sapiens, UniProt P00519); assay: KINOMEscan competition binding assay; conditions: LL6 at 10 μM; read-out: Percent Control
T7 construct: purchased DiscoverX KINOMEscan
Experimental: as §2

[12] = molecular target: T8, ACVR1B (Homo sapiens, UniProt P36896); assay: KINOMEscan competition binding assay; conditions: LL6 at 10 μM; read-out: Percent Control
T8 construct: purchased DiscoverX KINOMEscan
T8 sequence (P36896 24-505): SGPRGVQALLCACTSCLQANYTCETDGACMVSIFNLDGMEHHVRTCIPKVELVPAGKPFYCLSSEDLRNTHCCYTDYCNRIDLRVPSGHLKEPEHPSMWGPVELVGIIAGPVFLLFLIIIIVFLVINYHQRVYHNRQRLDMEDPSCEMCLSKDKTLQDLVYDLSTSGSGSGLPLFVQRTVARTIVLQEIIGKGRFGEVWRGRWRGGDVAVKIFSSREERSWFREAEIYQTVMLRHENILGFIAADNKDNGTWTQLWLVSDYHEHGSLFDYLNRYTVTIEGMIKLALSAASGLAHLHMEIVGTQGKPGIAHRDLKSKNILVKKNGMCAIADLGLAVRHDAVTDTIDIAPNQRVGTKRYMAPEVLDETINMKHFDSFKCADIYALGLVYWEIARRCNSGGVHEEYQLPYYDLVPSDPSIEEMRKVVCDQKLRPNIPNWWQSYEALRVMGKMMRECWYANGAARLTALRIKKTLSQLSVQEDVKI
Experimental: as §2

[13] = molecular target: T9, AKT1 (Homo sapiens, UniProt P31749); assay: KINOMEscan competition binding assay; conditions: LL6 at 10 μM; read-out: Percent Control
T9 construct: purchased DiscoverX KINOMEscan
T9 sequence (P31749 whole entry): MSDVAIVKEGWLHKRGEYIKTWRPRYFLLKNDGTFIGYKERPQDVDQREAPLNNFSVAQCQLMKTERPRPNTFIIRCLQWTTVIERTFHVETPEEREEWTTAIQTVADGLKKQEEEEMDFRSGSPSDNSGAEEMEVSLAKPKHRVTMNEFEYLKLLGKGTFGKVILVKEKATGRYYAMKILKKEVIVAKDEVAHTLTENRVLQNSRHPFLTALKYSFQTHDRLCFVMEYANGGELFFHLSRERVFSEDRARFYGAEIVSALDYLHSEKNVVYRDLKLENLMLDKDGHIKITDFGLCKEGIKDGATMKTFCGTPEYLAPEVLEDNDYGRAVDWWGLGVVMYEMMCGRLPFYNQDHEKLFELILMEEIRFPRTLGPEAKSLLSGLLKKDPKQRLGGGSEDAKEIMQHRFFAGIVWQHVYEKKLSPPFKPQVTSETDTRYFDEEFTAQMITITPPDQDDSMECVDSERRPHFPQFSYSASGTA
Experimental: as §2

[14] = system: H1299/CsR cells; assay: MTT assay, viability of cisplatin-resistant H1299/CsR cells; assay type: cell-based; conditions: Homo sapiens, NCI-H1299, 72 h, three days, read-out: IC50 against the viability
Source text: Human lung cancer cell lines (A549, H1299, H1993, H1944, H226B, H226Br, H460, H522, HCC15, and PC9), a diploid human lung fibroblast cell line (Wi38), and the Lewis lung carcinoma (LLC) cell line were purchased from the American Type Culture Collection (ATCC, Manassas, VA, USA) or kindly provided by Dr. John V. Heymach (MD Anderson Cancer Center, Houston, TX, USA). Human retinal pigment epithelial (RPE) cells were kindly provided by Dr. Jeong Hun Kim (College of Medicine, Seoul National University, Seoul, Republic of Korea). HT-22 cells were provided by Dr. Dong Gyu Jo (College of Pharmacy, Sungkyunkwan University, Suwon, Republic of Korea). Lung cancer cells were cultured in RPMI 1640 medium supplemented with 10% fetal bovine serum (FBS) and antibiotics (Welgene, Gyeongsan-si, Republic of Korea). LLC, HT-22, and Wi38 cells were maintained in DMEM supplemented with 10% FBS and antibiotics. RPE cells were maintained in DMEM/F12 supplemented with 10% FBS and antibiotics. […]
Cells were seeded into 96-well plates at a density of 1-2 × 10^3 cells/well and incubated for 24 h. […] The formazan products were dissolved in dimethyl sulfoxide (DMSO), and the absorbance was measured at 570 nm. […]

[15] = Toxicity test in mice; assay type: in vivo, FVB mice
Experimental: Blood was collected from euthanized mice under isoflurane-induced deep anesthesia by cardiac puncture. After allowing blood coagulation at 4 °C, serum was collected by centrifugation at 3,000 rpm for 10 min at 4 °C. Analysis of the serum levels of alanine aminotransferase (ALT) and aspartate aminotransferase (AST) was performed using a veterinary hematology analyzer (Fuji DRI-Chem 3500s, Fujifilm, Tokyo, Japan) according to the manufacturer' s protocols.

[16] = system: NSCLC cells; assay: Anchorage-dependent colony formation assay; assay type: cell-based, human; conditions: subset of NSCLC cells
Experimental: Cells were seeded into 6-well plates at a density of 300 cells/well and treated with LL6. The drug-containing medium was changed once or twice a week. After incubation for 10-14 days, colonies were fixed with 100% methanol, stained with 0.002% crystal violet solution, and washed with deionized water several times. The colonies were imaged and manually counted.

[17] = system: 97 tested kinases; assay: Kinome-wide inhibition profiling (KINOMEscan, TREEspot); assay type: binding, human; conditions: 10 µM, > 65% inhibition
[18] = LL6-treated mice vs vehicle-treated control

## Nc1ncnc2c1c(-c1ccc(Cl)cc1)nn2CCn1cc(COc2ccc(Nc3nccc(Nc4cnc5ccccc5c4)n3)cc2)nn1 [LL6]
[1]
  IC50: 3.73 µM
[2]
  viability at 3 days, 10 µM: > 60%
[3]
  IC50: > 10 µM
[4]
  IC50: > 10 µM
[5]
  remaining binding at 10 µM: 100%
[6]
  remaining binding at 10 µM: 77%
[7]
  remaining binding at 10 µM: 55%
[8]
  remaining binding at 10 µM: 62%
[9]
  remaining binding at 10 µM: 92%
[10]
  remaining binding at 10 µM: 67%
[11]
  remaining binding at 10 µM: 61%
[12]
  remaining binding at 10 µM: 50%
[13]
  remaining binding at 10 µM: 100%
[14]
  IC50: 1.07 µM
[15]; H&E-stained tissues
  histological alterations in major organs, including the lung and liver: did not cause detectable histological alterations
[15]; [18]
  serum ALT level: remained unchanged
  serum AST level: remained unchanged
[15]; mice, LL6 20, 40, and 80 mg/kg daily for 2 weeks
  body weight: remained unchanged
[16]
  colony formation, anchorage-dependent: significantly suppressed
[17]
  S-score: 0.12
